For one molecule, pest or weed control, plant injury and Corn plant response rating (crop injury, 0 = no effect, 100 = complete kill) results are on record in patent US12077503B2, “Substituted cyclic amides and their use as herbicides” (FMC CORPORATION, priority 2015, dated 2024).

What all share (format): in vivo
Assay [1] has as its system Kochia (Kochia scoparia). Description: Test A preemergence. Conditions: Bassia scoparia, pre-emergence, 240 h, 125 g ai/ha, Preemergence, visual injury rating after approximately 10 d; read-out: Kochia plant response rating (0 to 100 scale, 0 is no effect, 100 is complete control). The method in brief:
(§1)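 Treatment is preemergence as a directed soil spray after planting, or postemergence at the one- to two-leaf stage, with test chemical in a non-phytotoxic solvent mixture plus surfactant. Plants stay in the greenhouse about 10 d before visual injury scoring on a 0 to 100 scale versus untreated controls.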

For assay [2], the system named is giant foxtail (Setaria faberii). The experiment in a line: Test A preemergence. The settings on record: Setaria faberi, pre-emergence, 240 h. The method, boiled down:
as §1

The test system of assay [3] is pigweed (Amaranthus retroflexus). The experiment in a line: Test A preemergence. The settings on record: Amaranthus retroflexus, pre-emergence, 240 h.
For assay [4], the system named is ryegrass, Italian (Italian ryegrass, Lolium multiflorum). The experiment in a line: Test A preemergence. Conditions: Lolium multiflorum, pre-emergence, 240 h. The method in brief:
as §1

For assay [5], the system named is ragweed (common ragweed, Ambrosia elatior). Description: Test A preemergence. The settings on record: Ambrosia artemisiifolia, pre-emergence, 240 h, 125 g ai/ha, Preemergence, visual injury rating after approximately 10 d; read-out: Ragweed plant response rating (0 to 100 scale, 0 is no effect, 100 is complete control). The method in brief: as §1
In assay [6] the test system is barnyardgrass (Echinochloa crus-galli). The experiment in a line: Test A preemergence. Conditions: Echinochloa crus-galli, pre-emergence, 240 h. The method, boiled down:
as §1

Assay [7] concerns Kochia (Kochia scoparia). The experiment in a line: Test A postemergence. Conditions: Bassia scoparia, post-emergence, 240 h, 125 g ai/ha, postemergence; visual injury on 0 to 100 scale (0 no effect, 100 complete control), approx. 10 d; read-out: Kochia plant response rating. The method, boiled down:
as §1

The next assay has as its system corn (Zea mays). The experiment in a line: Test A postemergence. Conditions: Zea mays, post-emergence, 240 h, postemergence, approx. 10 d. The method in brief: as §1
For assay [8], the system named is giant foxtail (Setaria faberii). The experiment in a line: Test A postemergence. Conditions: Setaria faberi, post-emergence, 240 h, postemergence, approx. 10 d. The method, boiled down: as §1
The test system of assay [9] is pigweed (Amaranthus retroflexus). The experiment in a line: Test A postemergence. Conditions: Amaranthus retroflexus, post-emergence, 240 h, 125 g ai/ha, postemergence; visual injury on 0 to 100 scale (0 no effect, 100 complete control), approx. 10 d; read-out: Pigweed plant response rating. The method in brief: as §1
Assay [10] relates to wheat (Triticum aestivum). The experiment in a line: Test A postemergence. The settings on record: Triticum aestivum, post-emergence, 240 h, 125 g ai/ha, postemergence; visual injury on 0 to 100 scale (0 no effect, 100 complete control), approx. 10 d; read-out: Wheat plant response rating. The method, boiled down:
as §1

Assay [11] concerns ryegrass, Italian (Italian ryegrass, Lolium multiflorum). Description: Test A postemergence. Conditions: Lolium multiflorum, post-emergence, 240 h, 125 g ai/ha, postemergence; visual injury on 0 to 100 scale (0 no effect, 100 complete control), approx. 10 d; read-out: Ryegrass, Italian plant response rating. The method, boiled down:
as §1

For assay [12], the system named is ragweed (common ragweed, Ambrosia elatior). The experiment in a line: Test A postemergence. Conditions: Ambrosia artemisiifolia, post-emergence, 240 h, 125 g ai/ha, postemergence; visual injury on 0 to 100 scale (0 no effect, 100 complete control), approx. 10 d; read-out: Ragweed plant response rating. The method, boiled down:
as §1

The test system of assay [13] is Galium (catchweed bedstraw, Galium aparine). Description: Test A postemergence. Conditions: Galium, post-emergence, 240 h, postemergence, approx. 10 d. The method, boiled down:
as §1

For assay [14], the system named is barnyardgrass (Echinochloa crus-galli). Description: Test A postemergence. Conditions: Echinochloa crus-galli, post-emergence, 240 h, postemergence, approx. 10 d. The method in brief: as §1

With `Cc1cc([C@H]2CNC(=O)[C@@H]2C(=O)Nc2ccccc2S(C)(=O)=O)ccc1C(F)(F)F` [Compound 1041], the pest or weed control at 125 g/ha amounted to 30% with Kochia (Kochia scoparia) [1]; 80% in [2] (125 g ai/ha, Preemergence, visual injury rating after approximately 10 d, read-out: Foxtail, Giant plant response rating (0 to 100 scale, 0 is no effect, 100 is complete control)); 0% in [3] (125 g ai/ha, Preemergence, visual injury rating after approximately 10 d, read-out: Pigweed plant response rating (0 to 100 scale, 0 is no effect, 100 is complete control)); 0% in [4] (125 g ai/ha, Preemergence, visual injury rating after approximately 10 d, read-out: Ryegrass, Italian plant response rating (0 to 100 scale, 0 is no effect, 100 is complete control)); 20% in [5]; 30% in [6] (125 g ai/ha, Preemergence, visual injury rating after approximately 10 d, read-out: Barnyardgrass plant response rating (0 to 100 scale, 0 is no effect, 100 is complete control)). The pest or weed control at 125 g/ha with Kochia (Kochia scoparia) [7] amounted to 0%; in assay [8] (125 g ai/ha, visual injury on 0 to 100 scale (0 no effect, 100 complete control), read-out: Foxtail, Giant plant response rating), 0%; in assay [9] it was 0%; in assay [11], 0%; in assay [12] it was 0%; in assay [13] (125 g ai/ha, visual injury on 0 to 100 scale (0 no effect, 100 complete control), read-out: Galium plant response rating) it was 40%. The pest or weed control at 125 g/ha in assay [14] (125 g ai/ha, visual injury on 0 to 100 scale (0 no effect, 100 complete control), read-out: Barnyardgrass plant response rating) is 0%. The pest or weed control at 500 g/ha was determined as 90% in [2] (500 g ai/ha, preemergence, visual injury rating about 10 d after treatment, 0 to 100 scale (0 no effect, 100 complete control), read-out: Foxtail, Giant plant response rating); 20% in assay [3] (500 g ai/ha, preemergence, visual injury rating about 10 d after treatment, 0 to 100 scale (0 no effect, 100 complete control), read-out: Pigweed plant response rating); 0% in assay [4] (500 g ai/ha, preemergence, visual injury rating about 10 d after treatment, 0 to 100 scale (0 no effect, 100 complete control), read-out: Ryegrass, Italian plant response rating); 60% in [6] (500 g ai/ha, preemergence, visual injury rating about 10 d after treatment, 0 to 100 scale (0 no effect, 100 complete control), read-out: Barnyardgrass plant response rating); 50% in assay [8] (500 g ai/ha, visual injury, 0 to 100 scale (0 no effect, 100 complete control), read-out: Plant response rating, Foxtail, Giant); 60% in assay [13] (500 g ai/ha, visual injury, 0 to 100 scale (0 no effect, 100 complete control), read-out: Plant response rating, Galium). Moreover, the pest or weed control at 500 g/ha in assay [14] (500 g ai/ha, visual injury, 0 to 100 scale (0 no effect, 100 complete control), read-out: Plant response rating, Barnyardgrass) is 50%. Further, the plant injury at 125 g/ha turned out to be 0% in the assay with corn (Zea mays) (125 g ai/ha, visual injury on 0 to 100 scale (0 no effect, 100 complete control), read-out: Corn plant response rating) and 0% in [10]. This molecule showed a Corn plant response rating (crop injury, 0 = no effect, 100 = complete kill) at 500 g/ha in the assay on corn (Zea mays) (500 g ai/ha, visual injury, 0 to 100 scale (0 no effect, 100 complete control)) of 30%.
